From patent US11091476B2, “Protein kinase inhibitors, preparation method and medical use thereof” (Gan & Lee Pharmaceuticals, priority 2015, dated 2021)

Tests used:
[1] = target: CDK6/CyclinD3 (Homo sapiens (Human), UniProt Q00534); assay: CDK kinase inhibitory activity, ADP-Glo Kinase Assay, CDK6/CyclinD3; assay type: biochemical; conditions: for CDK1/CDK6: ratio of IC50s, selectivity for CDK6 over CDK1
Description: (§1) Measurement of CDK kinase inhibitory activity of the compounds of this disclosure.
(§2) In vitro inhibitory effect of the compounds of the disclosure on CDK (CDK1, CDK4 and CDK6) kinase activity was tested by the following method.
(§3) 1.1 Instrument and Kit Information
(§4) 1.2 Experimental Preparation • 1.2.1 Preparation of Kinase Reaction Buffer I: The 5×Reaction Buffer A (Promega; V307A-C) provided in the kit was mixed and diluted with MILLI-Q® H2O and 0.1 M DTT (dithiothreitol) to give 4× kinase buffer, and then MILLI-Q® H2O was further added to finally formulate the solution into 1× Kinase buffer.
(§5) 1 μl of 10 mM standard substance stock solution was taken and added to 9 μl of kinase reaction buffer I and mixed well; then 90 μl of kinase reaction buffer I was added and mixed well; then 100 μl of kinase reaction buffer I was added and mixed well. The final concentration was 50 μM. • b. 40 μl of kinase reaction buffer II was added into B2 to B10 of a 96-well plate, and 50 μl of the above solution was added into B1; • c. 10 μl of solution was taken from well B1, added into B2, and mixed well; then 10 μl of the resulting solution was taken and added into B3, and dilution was carried out in sequence to B9, so as to obtain control solutions that are diluted by 5-fold sequentially. • (2) Preparation of test compound solution: • a. Test compound solutions at a certain concentration were taken, respectively, diluted with kinase reaction buffer I to a final concentration of 50 μM compound solution; • b. 40 μl of kinase reaction buffer II was added into H2 to H10 of the 96-well plate; and 50 μl of the above solution was added into H1; • c. 10 μl of solution was taken from well H1, added into H2, and mixed well; then 10 μl of the resulting solution was taken and added into H3, and dilution was carried out in sequence to H9, so as to obtain test compound solutions that are diluted by 5-fold sequentially. • 1.2.4 Preparation of a mixed solution of reaction substrate and ATP: • a. Preparation of ATP solution: • 200 μl of 0.1 mM ATP solution: 2 μl of 10 mM ATP was added to 198 μl of kinase reaction buffer I; • 300 μl of 50 μM ATP solution: 150 μl of kinase reaction buffer I was added to 150 μl of the above 0.1 mM ATP solution; • b. Preparation of 300 μl of reaction substrate solution: • 150 μl 1 μg/μl reaction substrate stock solution was added to 150 μl kinase reaction buffer I, and mixed well; • c. The above a/b solutions were mixed to obtain mixed solutions, respectively.
(§6) 1.3 Experimental process: • 1.3.1: 2 μl of compound solutions of various concentrations were taken, added to a 384-well plate, and centrifuged 3 minutes; • 1.3.2: 4 μl of kinase solution was added to each well, centrifuged at 5000 rpm and 18° C. for 10 minutes, and shaken on a plate shaker for 10 minutes; • 1.3.3: 4 μl of mixed solution of substrate and ATP was added to each well, centrifuged at 5000 rpm and 18° C. for 10 minutes, and shaken on a plate shaker at 37° C. for 90 minutes; • 1.3.4: The 384-well plate was taken out, and allowed to stand to room temperature; • 1.3.5: 10 μl of ADP-GLO™ reagent was added to each well, centrifuged at 5000 rpm and 18° C. for 18 minutes, and shaken on a plate shaker at 25° C. for 40 minutes, and then the reaction was stopped; • 1.3.6: 20 μl of kinase detection reagent was added to each well, centrifuged at 5000 rpm and 18° C. for 10 minutes, and shaken on a plate shaker at 25° C. for 30 minutes; and • 1.3.7: M1000pro MICROPLATE READER was used to read […] values.
(§7) The inhibition rate of each compound at each concentration point was calculated by the formula as follows and curve fitting was performed by GraphPad Prism 5 software to obtain the IC50 value.

[2] = target: CDK1/CyclinA2 (Homo sapiens (Human), UniProt P06493); assay: CDK kinase inhibitory activity, ADP-Glo Kinase Assay, CDK1/CyclinA2; assay type: biochemical
Description: as §1, §2, §3, §4, §5, §6, §7

| IC50 [1] [nM] | CDK1/CDK6 [1] | IC50 [2] [nM] | Compound |
| --- | --- | --- | --- |
| 0.2 | 99.15 | 19.8 | CCC1(CC)C(C)=Nc2c(F)cc(-c3nc(Nc4ccc(C5CCN(C)CC5)cn4)ncc3F)cc21 [Example 38, 4-(3,3-diethyl-7-fluoro-2-methyl-3H-indol-5-yl)-5-fluoro-N-(5-(1-methylpiperidin-4-yl)pyridin-2-yl)pyrimidine-2-amino] |
| 22.9 | 3.22 | 73.7 | CC1=Nc2ccc(-c3nc(Nc4ccc(C5CCN(C)CC5)cn4)ncc3F)cc2C1(C)C [Example 37, 5-Fluoro-N-(5-(1-methylpiperidin-4-yl)pyridin-2-yl)-4-(2,3,3-trimethyl-3H-indol-5-yl)pyrimidine-2-amino] |
| 58.8 |  |  | CC1=Nc2c(F)cc(-c3nc(Nc4ccc(C5CCN(C)CC5)cn4)ncc3F)cc2C1(C)C [Example 31, 5-Fluoro-4-(7-fluoro-2,3,3-trimethyl-3H-indol-5-yl)-N-(5-(1-methylpiperidin-4-yl)pyridin-2-yl)pyrimidine-2-amino] |
| 5.62 | 19.58 |  | CCC1(C)C(C)=Nc2c(F)cc(-c3nc(Nc4ccc(C5CCNCC5)cn4)ncc3F)cc21 (stereo not drawn) [Example 11] |
| 8.74 | 7.33 | 64 | CCC1(C)C(C)=Nc2ccc(-c3nc(Nc4ccc(C5CCN(C)CC5)cn4)ncc3F)cc21 (stereo not drawn) [Example 35, 4-(3-ethyl-2,3-dimethyl-3H-indol-5-yl)-5-fluoro-N-(5-(1-methylpiperidin-4-yl)-pyridin-2-yl)pyrimidine-2-amino] |
| 2.33 |  |  | CCC1(C)C(C)=Nc2c(F)cc(-c3nc(Nc4ccc(CN5CCN(C)CC5)cn4)ncc3F)cc21 (stereo not drawn) [Example 42, 4-(3-ethyl-7-fluoro-2,3-dimethyl-3H-indol-5-yl)-5-fluoro-N-(5-((4-methylpiperazin-1-yl)methyl)pyridin-2-yl)pyrimidine-2-amino] |
| 43.9 |  |  | CC1=Nc2c(F)cc(-c3nc(Nc4ccc(OC5CCN(C)CC5)cn4)ncc3F)cc2C12CCCC2 [Example 45, N-(5-((1-methylpiperidin-4-yl)oxy)-pyridin-2-yl)-5-fluoro-4-(7′-fluoro-2′-methylspiro[cyclopentane-1,3′-indol]-5′-yl)pyrimidine-2-amino] |

Further lines, the molecule ahead of its results:

| Compound | IC50 [1] [nM] | CDK1/CDK6 [1] | IC50 [2] [nM] |
| --- | --- | --- | --- |
| CC1=Nc2c(F)cc(-c3nc(Nc4ccc(C5CCN(C)CC5)c(C)n4)ncc3F)cc2C12CCCC2 [Example 44, N-(5-(1-methylpiperidin-4-yl)-(6-methylpyridin)-2-yl)-5-fluoro-4-(7′-fluoro-2′-methylspiro[cyclopentane-1,3′-indol]-5′-yl)pyrimidine-2-amino] | 37.5 |  |  |
| CCC1(C)C(C)=Nc2ccc(-c3nc(Nc4ccc(C5CCNCC5)cn4)ncc3F)cc21 (stereo not drawn) [Example 33, 4-(3-ethyl-2,3-dimethyl-3H-indol-5-yl)-5-fluoro-N-(5-(piperidin-4-yl)pyridin-2-yl)pyrimidine-2-amino] | 15.6 | 10.65 |  |
| CCN1CCN(Cc2ccc(Nc3nccc(-c4cc(F)c5c(c4)C4(CCCC4)C(C)=N5)n3)nc2)CC1 [Example 8, N-(5-((4-ethylpiperazin-1-yl)methyl)pyridin-2-yl)-4-(7′-fluoro-2′-methylspiro [cyclopentane-1,3′-indol]-5′-yl)pyrimidine-2-amino] | 85.8 |  |  |
| CCC1(C)C(C)=Nc2c(F)cc(-c3nc(Nc4ccc5c(n4)CCN(C(=O)CO)C5)ncc3F)cc21 (stereo not drawn) [Example 39, 1-(2-((4-(3-Ethyl-7-fluoro-2,3-dimethyl-3H-indol-5-yl)-5-fluoropyrimidin-2-yl)amino)-7,8-dihydro-1,6-naphthyridine-6 (5H)-yl)-2-hydroxyacetamide] | 5.65 | 6.82 | 38.5 |
| CCN1CCN(Cc2ccc(Nc3ncc(F)c(-c4cc(F)c5c(c4)C4(CCC4)C(C)=N5)n3)nc2)CC1 [Example 4, N-(5-((4-ethylpiperazin-1-yl)methyl)pyridin-2-yl)-5-fluoro-4-(7′-fluoro-2′-methylspiro[cyclobutane-1,3′-indol]-5′-yl)aminopyrimidine-2-amino] | 2150 |  |  |
| CCN1CCN(c2ccc(Nc3ncc(F)c(-c4cc(F)c5c(c4)C4(CCCC4)C(C)=N5)n3)nc2)CC1 [Example 27, N-(5-(4-ethylpiperazin-1-yl)pyridin-2-yl)-5-fluoro-4-(7′-fluoro-2′-methylspiro [cyclopentane-1,3′-indol]-5′-yl)pyrimidine-2-amino] | 16.2 |  |  |
| CCC1(C)C(C)=Nc2ccc(-c3nc(Nc4ccc(N5CCN(C)CC5)cn4)ncc3F)cc21 (stereo not drawn) [Example 34, 4-(3-ethyl-2,3-dimethyl-3H-indol-5-yl)-5-fluoro-N-(5-(4-methylpiperazin-1-yl)pyridin-2-yl)pyrimidine-2-amino] | 5.13 | 21.75 |  |
| CC1=Nc2c(F)cc(-c3nc(Nc4ccc(N5CCN(CC6CC6)CC5)cn4)ncc3F)cc2C12CCCC2 [Example 41, N-(5-(4-(cyclopropylmethyl)piperazin-1-yl)pyridin-2-yl)-5-fluoro-4-(7′-fluoro-2′-methylspiro[cyclopentane-1,3′-indol]-5′-yl)pyrimidine-2-amino] | 76.6 |  |  |
| CCN1CCN(Cc2ccc(Nc3ncc(F)c(-c4cc(F)c5c(c4)C(C)(C)C(C)=N5)n3)nc2)CC1 [Example 2, N-(5-((4-ethylpiperazin-1-yl)methyl)pyridin-2-yl)-5-fluoro-4-(7-fluoro-2,3,3-trimethyl-3H-indol-5-yl)pyrimidine-2-amino] | 159 |  |  |
| CC1=Nc2c(F)cc(-c3nc(Nc4ccc5c(n4)CCN(C(=O)CO)C5)ncc3F)cc2C12CCCC2 [Example 40, 1-(2-((5-fluoro-4-(7′-fluoro-2′-methylspiro[cyclopentane-1,3′-indol]-5′-yl)pyrimidin-2-yl)amino)-7,8-dihydro-1,6-naphthyridine-6 (5H)-yl)-2-hydroxyacetamide] | 25 | 6.47 | 162 |
| CC1=Nc2ccc(-c3nc(Nc4ccc(C5CCNCC5)cn4)ncc3F)cc2C12CCCC2 [Example 15, 5-fluoro-4-(2′-methylspiro[cyclopentane-1,3′-indol]-5′-yl)-N-(5-(piperidin-4-yl)pyridin-2-yl)pyrimidine-2-amino] | 4.31 | 6.25 | 26.9 |
| CCN1CCN(Cc2ccc(Nc3ncc(F)c(-c4cc(F)c5c(c4)C(C)(CC)C(C)=N5)n3)nc2)CC1 (stereo not drawn) [Example 5, 4-(3-ethyl-7-fluoro-2,3-dimethyl-3H-indol-5-yl)-N-(5-((4-ethylpiperazin-1-yl)methyl)pyridin-2-yl)-5-fluoropyrimidine-2-amino] | 7.53 | 58.23 | 439 |
| CCN1CCN(c2ccc(Nc3ncc(F)c(-c4cc(F)c5c(c4)C(C)(CC)C(C)=N5)n3)nc2)CC1 (stereo not drawn) [Example 19, 4-(3-ethyl-7-fluoro-2,3-dimethyl-3H-indol-5-yl)-N-(5-(4-ethylpiperazin-1-yl)pyridin-2-yl)-5-fluoropyrimidine-2-amino] | 65.5 | 0.99 |  |
| CCC1(C)C(C)=Nc2ccc(-c3nc(Nc4ccc(N5CCNCC5)cn4)ncc3F)cc21 (stereo not drawn) [Example 32, 4-(3-ethyl-2,3-dimethyl-3H-indol-5-yl)-5-fluoro-N-(5-(piperazin-1-yl)pyridin-2-yl)pyrimidine-2-amino] | 10.1 | 14.01 |  |
| CCN1CCN(c2ccc(Nc3ncc(F)c(-c4ccc5c(c4)C(C)(CC)C(C)=N5)n3)nc2)CC1 (stereo not drawn) [Example 36, 4-(3-ethyl-2,3-dimethyl-3H-indol-5-yl)-N-(5-(4-ethylpiperazin-1-yl)pyridin-2-yl)-5-fluoropyrimidine-2-amino] | 3.79 | 26.65 |  |
